Reference: patent KR20050021629A, “신규한 벤조플루오렌 디온계 화합물” (학교법인 이화학당, priority 2003, dated 2005)
In brackets after ≈: the same amount, converted by molar mass. Like-named read-outs stand apart in the source and are kept apart here.

Tests used:
[1] = test system: human ovarian cancer cell line (SK-OV-3) (인간 난소암 세포주(SK-OV-3)); conditions: literature (Y. S. Kim et al. 2003); cited from earlier work
[2] = test system: human lung cancer cell line A549 (인간 폐암 세포주 (A549)); test: SRB cytotoxicity test, human lung cancer cell line A549; format: cell-based
[3] = test system: human ovarian cancer cell line SK-OV-3 (인간 난소암 세포주 (SK-OV-3)); test: SRB cytotoxicity test, human ovarian cancer cell line SK-OV-3; format: cell-based
[4] = test system: human melanoma cell line SK-MEL-2 (인간 흑색종암 세포주 (SK-MEL-2)); test: SRB cytotoxicity test, human melanoma cell line SK-MEL-2; format: cell-based
[5] = test system: human central nervous system cancer cell line XF498 (인간 중추 신경계암 세포주 (XF498)); test: SRB cytotoxicity test, human central nervous system cancer cell line XF498; format: cell-based
[6] = test system: human colon cancer cell line HCT15 (인간 결장암 세포주 (HCT15)); test: SRB cytotoxicity test, human colon cancer cell line HCT15; format: cell-based
[7] = A549, SRB assay, 48 h incubation, read-out: ED50 (the source's name)
[8] = SK-OV-3, SRB assay, 48 h incubation, read-out: ED50 (the source's name)
[9] = SK-MEL-2, SRB assay, 48 h incubation, read-out: ED50 (the source's name)
[10] = XF498, XF 498, SRB assay, 48 h incubation, read-out: ED50 (the source's name)
[11] = HCT 15, SRB assay, 48 h incubation, read-out: ED50 (the source's name)

Molecule | anticancer effect compared with doxorubicin [1] | IC50 ([2]; A549, 48 h, read-out: ED50) [µg/mL] | IC50 ([3]; SK-OV-3, 48 h, read-out: ED50) [µg/mL] | IC50 ([4]; SK-MEL-2, 48 h, read-out: ED50) [µg/mL] | IC50 ([5]; XF498, 48 h, read-out: ED50) [µg/mL] | IC50 ([6]; HCT-15, 48 h, read-out: ED50) [µg/mL] | IC50 [2, 7] [µg/mL] | IC50 [3, 8] [µg/mL] | IC50 [4, 9] [µg/mL] | IC50 [5, 10] [µg/mL] | IC50 [6, 11] [µg/mL]
2-메틸-4a,10,11-트리아자-벤조[3,2-a]플루오렌-5,6-디온 | 독소루비신보다 항암효과가 우수함 | – | – | – | – | – | – | – | – | – | –
COc1cccc2c1C(=O)c1c(O)c3c(c(O)c1C2=O)C[C@@](O)(C(=O)CO)C[C@@H]3O[C@H]1C[C@H](N)[C@H](O)[C@H](C)O1 [독소루비신, reference compound] | – | 0.093 (≈ 0.171 µM) | 0.21 (≈ 0.386 µM) | 0.11 (≈ 0.202 µM) | 0.187 (≈ 0.344 µM) | 0.19 (≈ 0.35 µM) | – | – | – | – | –
Cc1cccn2c3c(nc12)-c1ncccc1C(=O)C3=O [실시예 1, 10-메틸-1,6b,11-트리아자-벤조[3,2-a]플루오렌-5,6-디온] | – | – | – | – | – | – | 0.054 (≈ 0.205 µM) | 0.073 (≈ 0.277 µM) | 0.11 (≈ 0.418 µM) | 0.033 (≈ 0.125 µM) | 0.044 (≈ 0.167 µM)
Cc1cccc2nc3c(n12)C(=O)C(=O)c1cccnc1-3 [실시예 2, 7-메틸-1,6b,11-트리아자-벤조[3,2-a]플루오렌-5,6-디온] | – | – | – | – | – | – | 0.23 (≈ 0.874 µM) | 1.04 (≈ 3.95 µM) | 1.08 (≈ 4.1 µM) | 0.2 (≈ 0.76 µM) | 0.71 (≈ 2.7 µM)
O=C1C(=O)c2c(nc3ccc(Cl)cn23)-c2ncccc21 [실시예 3, 8-클로로-1,6b,11-트리아자-벤조[3,2-a]플루오렌-5,6-디온] | – | – | – | – | – | – | 0.59 (≈ 2.08 µM) | 0.55 (≈ 1.94 µM) | 0.65 (≈ 2.29 µM) | 0.45 (≈ 1.59 µM) | 0.99 (≈ 3.49 µM)
O=C1C(=O)c2c(nc3ncccn23)-c2ncccc21 [실시예 4, 1,6b,10,11-테트라아자-벤조[a]플루오렌-5,6-디온] | – | – | – | – | – | – | 0.12 (≈ 0.48 µM) | 0.061 (≈ 0.244 µM) | 0.034 (≈ 0.136 µM) | 0.081 (≈ 0.324 µM) | 0.077 (≈ 0.308 µM)
O=C1C(=O)c2c(nc3cnccn23)-c2ncccc21 [실시예 5, 1,6b,9,11-테트라아자-벤조[a]플루오렌-5,6-디온] | – | – | – | – | – | – | 0.051 (≈ 0.204 µM) | 0.02 (≈ 0.0799 µM) | 0.032 (≈ 0.128 µM) | 0.03 (≈ 0.12 µM) | 0.047 (≈ 0.188 µM)
O=C1C(=O)c2c(nc3ccccn23)-c2cnncc21 [실시예 6, 2,3,6b,11-테트라아자-벤조[a]플루오렌-5,6-디온] | – | – | – | – | – | – | 0.022 (≈ 0.0879 µM) | 0.2 (≈ 0.799 µM) | 0.12 (≈ 0.48 µM) | 0.12 (≈ 0.48 µM) | 0.1 (≈ 0.4 µM)
Cc1ccc2nc3c(n2c1)C(=O)C(=O)c1cnncc1-3 [실시예 7, 8-메틸-2,3,6b,11-테트라아자-벤조[a]플루오렌-5,6-디온] | – | – | – | – | – | – | 3.54 (≈ 13.4 µM) | 1.01 (≈ 3.82 µM) | 1.77 (≈ 6.7 µM) | 1.77 (≈ 6.7 µM) | 0.92 (≈ 3.48 µM)
COc1cc(C2c3cc4c(cc3C(OC3OC5COC(C)OC5C(O)C3O)C3COC(=O)C23)OCO4)cc(OC)c1O (stereo not shown) [에토포시드, reference compound] | – | 0.577 (≈ 0.98 µM) | 1.84 (≈ 3.13 µM) | 1.37 (≈ 2.33 µM) | 1.43 (≈ 2.43 µM) | 0.97 (≈ 1.65 µM) | – | – | – | – | –
